Assay results as given in patent US20080064665A1, “Combination approaches to cancer treatment” (priority 2006, published 2008).
Where “and” joins values, the source holds several entries; their conditions need not be identical. Identical values can stand only once.

Legend:
[1] = test system: H460 human lung cancer xenografts; assay: Growth delay and survival of H460 xenografts, PR-104, docetaxel and schedules thereof; format: in vivo, CD-1 nude mice
Experimental: Specific pathogen-free homozygous nu/nu (CD-1) nu/nu [NIH-III] (Charles River Laboratories, Wilmington, Mass.) were provided by the Animal Resources Unit (University of Auckland) at 7 to 9 weeks of age. Mice were housed in groups of 4-7 in a temperature-controlled room (22±2° C.) with a 12-hour light/dark cycle and were fed ad libitum water and a standard rodent diet (Harlan Teklad diet 2018i). All animals were uniquely identifiable by ear tag number. All animal protocols were approved by the Animal Ethics Committee of the University of Auckland (AEC approval C337).
A single cell suspension was prepared by trypsinisation (1× Trypsin/EDTA) from spinner culture, counted, and suspended in ∝MEM to give required cell concentration, as listed below. Mice were inoculated (100 μL) at a single subcutaneous site (right flank) using a 1 ml syringe with a 26 gauge needle.
Seven days post-inoculation, tumors were measured three times per week until they reached the treatment size (mean diameter 5.8-8.2 mm; average 7.0 mm). Mean tumor diameter was averaged from the longest diameter (length) multiplied by the perpendicular measurement (width). Tumor diameters were estimated when mean diameter was below 5 mm, and measured with electronic callipers when ≧5 mm.
Tumor volume was calculated using the formula:
where L=length and w=width in mm of the carcinoma.
(§1) Excess compound was discarded.
Tumor bearing mice were assigned randomly to treatment groups when tumor diameter reached treatment size. Animals were rejected if xenografts show evidence of: (i) attachment to underlying muscle (due to risk of local invasion), (ii) signs of ulceration, or (iii) indolent tumor growth. Drug administration begins on the day of assignment. In general, 0.7-0.8 of the inoculated population is assigned to the experiment. Drug administration was undertaken as outlined above.
During and after treatment, tumor size and body weights were measured regularly. Animals were culled if (i) the average diameter of the tumor exceeds 15 mm (survival end-point), (ii) body weight loss exceeds 15% of pre-treatment value, (iii) there is evidence of prolonged or excessive morbidity, or (iv) tumor ulceration occurred. Each experiment was terminated at day 120 after treatment initiation.
Kaplan-Meier plots were constructed and median survival was calculated (TTE50). The statistical significance of any differences in overall survival between treatment groups and control was analysed by Log Rank P statistical test. The log-rank test was calculated using XLStat Life (Kovach Computing Services Ltd). The statistic significance in overall survival between each treatment group and control was determined by testing the null hypothesis that the survival curves are identical in the two populations.
The time for individual tumors to increase in volume by 4 fold relative to treatment day-1 (relative tumor volume×4−RTV^4) was recorded. The median RTV^4 is calculated for each group and the difference in RTV^4 between control and treatment groups is described as the Tumor Growth Delay (TGD) in days. RTV^4 values notmalise for any bias in tumor treatment volume on day-1. The RTV^4 of each treatment group is tested for statistical difference from control group by unpaired t-test and Mann Whitney U test (means and medians, respectively).
In circumstances where long-term controls (LTCs) occur, an RTV^4 value equal to the total duration of the experiment is assigned for the purposes of statistical analysis (usually 120 days). Where one or more LTC is present the median RTV^4 of each treatment group is tested for statistical difference from control group by Mann Whitney U test only. The statistical analysis was conducted at a p level of 0.05 (two-tailed). SigmaStat v3.10 was used for the statistical analysis of RTV^4 values. SigmaPlot v9 was used for all graph plots.
Weight loss nadirs (time independent maxima) were recorded for each treatment group.

[2] = test system: SiHa human cervical cancer xenograft; assay: Growth delay and survival of SiHa xenograft, PR-104 and docetaxel; format: in vivo, Rag-1^null mice
From the text: Analysis: End-points will be expressed as TTE50, Median RTV^4 and plotted in Kaplan-Meier Plots and analysed by Log Rank P statistical test. Weight loss nadir will be compared between schedules.

[3] = test system: 22RV1 androgen-resistant human prostate cancer xenograft; assay: Growth delay and survival of 22RV1 xenograft, PR-104 and docetaxel; format: in vivo, CD-1 nude mice
Experimental: (§2) End-point: After treatment, tumor size and body weights were measured regularly and mice were culled either when the average diameter of the tumor reached 15 mm (end-point), the tumor ulcerated or when the body weight change reached −15%. Experiment was ended and all remaining mice culled 120 days after treatment.
(§3) Analysis: End-points will be expressed as TTE50, Median RTV^4 and plotted in Kaplan-Meier Plots and analysed by Log Rank P statistical test.

[4] = test system: A2780 human ovarian cancer xenografts; assay: Growth delay and survival of A2780 xenografts, PR-104 and docetaxel; format: in vivo, CD-1 nude mice
Experimental: as §2, §3

[5] = test system: SiHa cervical cancer xenografts; assay: Excision assay of SiHa xenografts (clonogenic log cell kill); format: in vivo, CD-1 Fox^nu mice; settings: SN 28343 91.2 mg/kg, SN 29303 375 mg/kg; for cell kill versus controls in excision assay (in words): SiHa human cervical tumor xenograft, docetaxel 65 mg/kg i.p.; for Log Cell Kill versus controls (Mean ± SEM): SiHa tumors excised 18 hours after treatment, docetaxel 65 mg/kg, i.p.
Experimental: As for Part 1 except for except where noted below.
as §1
Date, body weights (used to adjust injection volume), tumor diameter, unique identifier (tail markings), body weight, and volume to be injected were recorded. Animals were dosed with the test articles i.p. following a defined treatment schedule:
18 hours after treatment the mice were culled by cervical dislocation and tumors removed by dissection, in a sterile laminar flow hood. Whole tumor weights were recorded. Tumors were minced using scissors or scalpels until a fine minceate was obtained, and up to 500 mg of minceate was transferred into a pre-tiered Falcon®14 ml test tube containing a sterile magnetic spin bar and re-weighed.
Samples were then incubated in 37° C. water bath for 30 min over a magnetic stirrer.
After incubation any undissociated material was allowed to settle for 1 minute. […] Pellets were re-suspended in 10 ml of medium. Cells/ml was determined using an electronic particle counter (Beckman Coulter Electronics, Z2 model). Samples were then diluted to 1×10^5cells/ml and 6-fold serial dilutions made down to 4.6×10^2cells/ml.
1 ml of each sample was plated in triplicate for each dilution into appropriately labelled Falcon® P-60 tissue culture dishes containing 4 ml of αMEM+10% FCS+PS.
Where possible, all plates were counted; those colonies counted=larger than 50 cells, confirmed with the light microscope. TMTC was recorded for those plates where there were too many colonies to count.
The criteria for selecting the best dilution to use for calculating plating efficiency (PE):
Higher dilution count>100 colonies (average); lower dilution 10-100 colonies, use PE from the dilution with fewer colonies.
Higher dilution count >100; lower dilution count <20, use average data from both.
Higher dilution count <100; lower dilution count <20, use PE from the dilution with more colonies.
Higher dilution count <100; lower dilution count >20, use average data from both. Note: For the 10^5 dilution, take as the “lower limit” colony count a total count of 30, (sum of all replicates).

[6] = H460 xenograft, PR-104 652 mg/kg, docetaxel 73 mg/kg, q2w×2
[7] = Rag-1 mice, PR-104 652 mg/kg, docetaxel 73 mg/kg, q2w×2
[8] = 22RV1 xenograft, PR-104 652 mg/kg, docetaxel 73 mg/kg, q2w×2
[9] = A2780 xenograft, PR-104 652 mg/kg, docetaxel 73 mg/kg, q2w×2

CS(=O)(=O)OCCN(CCBr)c1c(C(=O)NCCOP(=O)(O)O)cc([N+](=O)[O-])cc1[N+](=O)[O-] [PR-104, 2-[(2-bromoethyl)-2,4-dinitro-6-[[[2-(phosphonooxy)ethyl]amino]-carbonyl]anilino]ethyl methane sulfonate]
Weight Loss Nadir (%) ([1]; H460 xenograft, CD-1 nude mice, mean body weight loss nadir, PR-104 652 mg/kg, docetaxel 73 mg/kg, i.p., q2w×2): −4.9 ± 1.0%
Unscheduled deaths ([1]; H460 xenograft, female CD-1 nude mice, total dose PR-104 652 mg/kg, docetaxel 73 mg/kg, i.p., q2w×2): 0
LTC (long term control, failed to reach end-point within duration of experiment) ([1]; H460 xenograft, 120 day experiment, PR-104 652 mg/kg, docetaxel 73 mg/kg, q2w×2): 0
Median RTV^4 (median time for tumor volume to increase 4-fold) [1, 6]: 23 days
TGD (tumor growth delay; relative gain in median RTV^4 versus control) [1, 6]: 187.5%
TTE50 (median time for tumor end-point to occur from day of treatment) ([1]; H460 xenograft, end-point >15 mm mean diameter, PR-104 652 mg/kg, docetaxel 73 mg/kg, q2w×2): 29 days
Gain TTE50 (improvement in median survival) ([1]; H460 xenograft, versus control (11 days), PR-104 652 mg/kg, docetaxel 73 mg/kg, q2w×2): 18 days
activity against H460 xenograft (in words) ([1]; tumor growth delay and survival end-points): significant single agent activity
activity against SiHa xenograft (in words) ([2]; Rag-1 mice): modestly active
LTC (long term control) ([2]; Rag-1 mice, 120 day experiment): 0
Weight Loss Nadir (%) ([2]; Rag-1 mice, PR-104 652 mg/kg, docetaxel 73 mg/kg, i.p., q2w×2): −2.2±1.2%
Median RTV^4 [2, 7]: 16 days
TGD (relative gain in median RTV^4 versus control) [2, 7]: 33.3%
TTE50 (median time for tumor end-point to occur) [2, 7]: 25 days
Day of death ([2]; Rag-1 mice, day of unscheduled death): 14^B
improvement in tumor growth delay ([2]; Rag-1 mice, versus control): 4 days
Gain TTE50 (improvement in median survival) ([2]; Rag-1 mice, versus control (17 days)): 8 days
Unscheduled deaths ([2]; female Rag-1 mice, total dose PR-104 652 mg/kg, docetaxel 73 mg/kg, i.p., q2w×2): 1
activity against 22RV1 xenograft (in words) ([3]; 22RV1 prostate xenograft model): modest single-agent antitumor activity
Weight Loss Nadir (%) ([3]; 22RV1 xenograft, CD-1 nude mice, PR-104 652 mg/kg, docetaxel 73 mg/kg, i.p., q2w×2): −2.1±0.5%
LTC (long term control) ([3]; 22RV1 xenograft, 120 day experiment): 0
Median RTV^4 [3, 8]: 23 days
TGD (relative gain in median RTV^4 versus control; TGI in text) [3, 8]: 156%
TTE50 [3, 8]: 26.5 days
median tumor growth delay ([3]; 22RV1 xenograft, versus control): 14 days
Gain TTE50 (improvement in median survival) ([3]; 22RV1 xenograft, versus control (9.5 days)): 17 days
Weight Loss Nadir (%) ([4]; A2780 xenograft, CD-1 nude mice, PR-104 652 mg/kg, docetaxel 73 mg/kg, i.p., q2w×2): −6.1±1.2%
LTC (long term control) ([4]; A2780 xenograft, 120 day experiment): 0
Median RTV^4 [4, 9]: 8 days
TGD (relative gain in median RTV^4 versus control) [4, 9]: 78% and 77.8%
TTE50 [4, 9]: 10 days
improvement in median tumor growth delay ([4]; A2780 xenograft, versus control): 3.5 days
Gain TTE50 (improvement in median survival) ([4]; A2780 xenograft, versus control (6 days)): 4 days
activity against A2780 xenograft (in words) ([4]; based on tumor growth delay): no activity

O=C(NCCOP(=O)(O)O)c1cc([N+](=O)[O-])cc([N+](=O)[O-])c1N(CCBr)CCBr [SN 28343, 2-[Bis(2-bromoethyl)amino]-N-(2-hydroxyethyl)-3,5-dinitrobenzamide phosphate ester]
cell kill versus controls in excision assay (in words) [5]: moderate and significant cell killing
Log Cell Kill versus controls (Mean ± SEM) [5]: 0.821

CS(=O)(=O)OCCN(CCBr)c1ccc([N+](=O)[O-])c(C(=O)NCCCOP(=O)(O)O)c1[N+](=O)[O-] [SN 29303, 2-[2-bromoethyl)-2,4-dinitro-3-({[3-(phosphonooxy)propyl]amino}carbonyl) anilino]ethyl methanesulfonate]
cell kill versus controls in excision assay (in words) [5]: moderate and significant cell killing
Log Cell Kill versus controls (Mean ± SEM) [5]: 0.770
